The numbers were not newly measured in patent US8071785B2, “Synthesis and evaluation of 18F-labelled-alkyl-1-[(1R)-1-phenylethyl]-1H-imidazole-5-carboxylate as a tracer for the quantification of β-11-hydroxylase enzyme in the adrenal glands” (priority 2006, dated 2011), which cites them from elsewhere.

SMILES strings stand for the structures.

The test system of data set [1] is steroid 110-hydroxylation.
The test system of data set [2] is lesions of adrenocortical origin. The settings on record: clinical findings.
[3] abbreviates: human adrenocortical tissue slices.

On to `COC(=O)c1cncn1[C@H](C)c1ccccc1` [metomidate, Methyl 1-[(1R)-1-phenylethyl]-1H-imidazole-5-carboxylate], for which the “inhibition of steroid 110-hydroxylation” value in data set [1] (relative to etomidate) is recorded as “equally potent inhibitor”. As to `CC(c1ccccc1)n1cncc1C(=O)O[11CH3]` (centres unmarked) [[O-methyl-^11C]metomidate], in data set [2], the “uptake in lesions of adrenocortical origin, including adenomas” value was “high uptake” and the “uptake in lesions of non-adrenocortical origin” value is “very low uptake”. Regarding `CCOC(=O)c1cncn1[C@H](C)c1ccccc1` [etomidate], in data set [1] (setting [3]), the “conversion of 11-deoxycorticosterone (DOC) to corticosterone and aldosterone” value is recorded as “block the conversion”; the “conversion of 11-deoxycortisol to cortisol” value is on record as “block the conversion”.
